Entries after “also recorded” stand apart in the source; their conditions may differ.
What was measured:
[1] = system: incision-induced pain in mice; assay: Incision-induced acute pain in mice, von Frey test; format: in vivo, mouse; conditions: 30 mg/kg I.P.
Procedure: FIG. 9. Effects of EXAMPLE-116, -118 or ML218 (a reference compound) on incision-induced acute pain in mice (C57BL/6, male, ˜2 months old; n=8 mice per treatment group). Mechanical pain threshold assessment (von Frey monofilament test) of the mice's incision left hindpaws. Each mouse received either EXAMPLE-116, -118, or ML218 (as a reference compound, each 30 mg/kg, I.P.) or vehicle (2% DMSO in 0.5% HPC, I.P.). Mechanical pain responses were measured at 0.5, 1, 2, 4, and 5 hours after treatment.
To further confirm the Cav3 modulator effects on acute pain and neurogenic inflammatory pain, an incision-pain mode in mice was used. Postoperative pain model induced by a deep incision in the hindpaw produces robust mechanical allodynia (Pogatzki et al., 2003). Mechanical pain thresholds were assessed using von Frey monofilament test of the incised left hindpaws. Each mouse received either EXAMPLE-116, -118, ML218 (as a reference compound, each 30 mg/kg, I.P.) or vehicle (2% DMSO in 0.5% HPC, I.P., n=8 mice per treatment group). Mechanical pain responses were measured at 0.5, 1, 2, 4, and 5 hours after treatment.

Cav3.2 channel = biological target: T1, Cav3.2 channel (Homo sapiens, UniProt O95180); assay: Whole-cell patch clamp of T-type Cav3.2 channel expressed in HEK293 cells; format: cell-based; conditions: for inhibition at 1 µM: HEK293, Table 1 primary screening
T1 construct: expressed in transfected cells; host or cells: HEK-293, tetracycline inducible expression system (Invitrogen)
T1 sequence (O95180 whole entry): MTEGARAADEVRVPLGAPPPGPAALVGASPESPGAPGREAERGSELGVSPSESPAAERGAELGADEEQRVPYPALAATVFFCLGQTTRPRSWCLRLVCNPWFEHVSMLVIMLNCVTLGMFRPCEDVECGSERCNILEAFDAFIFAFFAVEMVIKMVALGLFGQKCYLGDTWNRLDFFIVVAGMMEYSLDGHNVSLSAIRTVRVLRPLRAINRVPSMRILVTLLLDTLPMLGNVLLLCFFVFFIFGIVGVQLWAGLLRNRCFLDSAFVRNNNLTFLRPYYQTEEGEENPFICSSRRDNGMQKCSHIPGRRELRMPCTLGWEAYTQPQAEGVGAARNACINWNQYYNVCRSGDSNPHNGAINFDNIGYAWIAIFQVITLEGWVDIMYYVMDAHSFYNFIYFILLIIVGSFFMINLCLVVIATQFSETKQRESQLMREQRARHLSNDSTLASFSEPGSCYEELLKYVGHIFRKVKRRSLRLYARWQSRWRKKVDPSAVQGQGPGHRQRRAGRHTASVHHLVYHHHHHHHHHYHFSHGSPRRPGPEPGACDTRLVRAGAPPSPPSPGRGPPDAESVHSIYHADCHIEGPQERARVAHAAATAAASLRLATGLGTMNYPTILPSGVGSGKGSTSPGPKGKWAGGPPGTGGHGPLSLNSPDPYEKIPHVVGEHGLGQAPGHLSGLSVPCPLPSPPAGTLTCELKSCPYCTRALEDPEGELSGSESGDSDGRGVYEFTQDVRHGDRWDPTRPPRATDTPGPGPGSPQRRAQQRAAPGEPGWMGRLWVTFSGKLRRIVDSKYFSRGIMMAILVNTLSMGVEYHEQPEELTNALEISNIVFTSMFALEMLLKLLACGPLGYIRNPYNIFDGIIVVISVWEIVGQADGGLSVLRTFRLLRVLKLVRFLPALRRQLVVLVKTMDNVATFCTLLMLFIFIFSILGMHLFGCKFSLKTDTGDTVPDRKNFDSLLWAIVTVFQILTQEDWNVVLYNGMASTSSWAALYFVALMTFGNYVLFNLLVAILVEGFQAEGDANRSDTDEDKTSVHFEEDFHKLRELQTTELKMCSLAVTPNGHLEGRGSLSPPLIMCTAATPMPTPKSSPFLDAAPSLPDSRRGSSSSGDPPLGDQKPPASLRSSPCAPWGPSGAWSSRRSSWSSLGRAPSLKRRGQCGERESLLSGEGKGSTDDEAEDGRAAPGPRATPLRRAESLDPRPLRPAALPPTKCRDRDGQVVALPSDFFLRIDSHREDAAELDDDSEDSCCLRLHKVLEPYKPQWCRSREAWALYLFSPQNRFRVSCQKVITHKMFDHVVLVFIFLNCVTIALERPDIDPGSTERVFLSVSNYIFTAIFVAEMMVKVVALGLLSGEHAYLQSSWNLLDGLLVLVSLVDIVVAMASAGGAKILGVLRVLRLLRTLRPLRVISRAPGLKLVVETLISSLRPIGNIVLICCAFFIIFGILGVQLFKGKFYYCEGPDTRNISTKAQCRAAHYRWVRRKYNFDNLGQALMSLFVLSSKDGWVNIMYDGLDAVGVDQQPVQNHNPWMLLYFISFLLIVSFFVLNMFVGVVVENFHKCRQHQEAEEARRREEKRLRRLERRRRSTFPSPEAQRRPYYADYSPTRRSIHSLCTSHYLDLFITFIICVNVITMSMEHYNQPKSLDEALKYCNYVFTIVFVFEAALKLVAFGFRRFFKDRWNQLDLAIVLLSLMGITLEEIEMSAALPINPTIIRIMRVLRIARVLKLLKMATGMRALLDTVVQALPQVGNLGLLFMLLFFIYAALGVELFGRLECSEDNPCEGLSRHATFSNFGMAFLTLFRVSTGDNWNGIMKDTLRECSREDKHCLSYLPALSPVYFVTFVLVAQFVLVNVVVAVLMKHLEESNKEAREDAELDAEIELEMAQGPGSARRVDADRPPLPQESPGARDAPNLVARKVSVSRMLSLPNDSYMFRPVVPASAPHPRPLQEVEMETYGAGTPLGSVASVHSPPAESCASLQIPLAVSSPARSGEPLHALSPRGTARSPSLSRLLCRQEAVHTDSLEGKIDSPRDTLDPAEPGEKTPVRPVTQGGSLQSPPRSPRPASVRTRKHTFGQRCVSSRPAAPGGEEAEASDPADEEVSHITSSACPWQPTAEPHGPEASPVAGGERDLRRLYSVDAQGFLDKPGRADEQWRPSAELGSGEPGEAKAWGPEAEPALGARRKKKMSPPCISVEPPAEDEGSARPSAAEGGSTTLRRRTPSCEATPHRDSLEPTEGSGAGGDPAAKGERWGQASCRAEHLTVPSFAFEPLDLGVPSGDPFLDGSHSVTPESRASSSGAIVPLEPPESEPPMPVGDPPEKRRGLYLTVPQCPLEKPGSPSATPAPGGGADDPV

[2] = system: taxol-induced neuropathic pain model in mice; assay: Taxol-induced neuropathic pain in mice, von Frey test; format: in vivo, mouse; conditions: 30 mg/kg I.P.
Procedure: FIG. 6A. Effects of EXAMPLE-115 on taxol (4 mg/kg, I.P.)-induced neuropathic pain model in mice. Mechanical pain thresholds of left hindpaws were assessed using von Frey monofilament test. Each mouse received either EXAMPLE-115 (3, 10 or 30 mg/kg, I.P.) or vehicle (2% DMSO in 0.5% HPC, I.P.; n=8 per group). Injection of taxol lowered mechanical pain thresholds.
FIG. 6B. Effects of EXAMPLE-123 on taxol (4 mg/kg, I.P.)-induced neuropathic pain model in a separate cohort of mice. Mechanical pain thresholds of left hindpaws were assessed using von Frey monofilament test. Each mouse received either EXAMPLE-123 (30 mg/kg, I.P., n=8) or vehicle (2% DMSO in 0.5% HPC, I.P.).
Chemotherapy-induced painful neuropathy is a common side effect associated with chronic treatment with Taxol (paclitaxel) or other anticancer drugs based on cytotoxicity. Taxol or paclitaxel is one of the most popular drugs used for the treatment of various cancers (Chaudhry et al., 1994). The chemotherapy-induced peripheral neuropathy manifests as chronic hyperalgesia and other sensory abnormalities. Taxol (Sigma, 4.0 mg/kg, I.P.) was dissolved in saline containing 5% DMSO (vehicle) and injected to mice (freshly prepared before injection).

T-type Ca2+ current = conditions: Avdonin et al., 2000; cited from earlier work

SMILES	mechanical pain threshold, incision-induced pain [1]	inhibition at 1 µM (Cav3.2 channel) [%]	also measured
O=C(Nc1nnc(-c2ccc(Cl)s2)o1)N1C(=O)c2cc(Cl)c(Cl)cc2C1=O [Example 116, 5,6-Dichloro-N-(5-(5-chlorothiophen-2-yl)-1,3,4-oxadiazol-2-yl)-1,3-dioxoisoindoline-2-carboxamide]	inhibited incision-induced inflammatory pain	10	
O=C(CCc1cccc(Cl)c1)Nc1nnc(-c2ccc(Cl)s2)o1 [Example 118, 3-(3-Chlorophenyl)-N-(5-(5-chlorothiophen-2-yl)-1,3,4-oxadiazol-2-yl)propanamide]	inhibited incision-induced inflammatory pain	20	
O=C(CNc1ccccc1)Nc1nnc(-c2ccccc2)o1 [Example 123, N-(5-Phenyl-1,3,4-oxadiazol-2-yl)-2-(phenylamino)acetamide]			duration of reduction of taxol-induced neuropathic pain [2]: at least 5 hours; mechanical pain threshold, taxol-induced neuropathic pain ([2]; taxol 4 mg/kg I.P.): caused significant effects on Taxol-induced pain; also recorded: reduced the taxol-induced neuropathic pain; IC50 (Cav3.2 channel; Table 1, tested at at least 4 concentrations, read-out: IC50): 5.1 µM
COCC(=O)O[C@]1(CCN(C)CCCc2nc3ccccc3[nH]2)CCc2cc(F)ccc2[C@@H]1C(C)C [mibefradil]			potency of T-type inhibition relative to L-type Ca2+ current or voltage-gated Na+ current (T-type Ca2+ current): 3-10 times
